Legend:
Type in all cases: in vivo
BKW male albino mice = assay: Black and white box test (Example 10); settings: 0.1 mg/kg IP 40 min before test, 5-min period
rats [1] = assay: Elevated plus maze (X-maze) in rats; settings: 0.125 mg/kg IP 40 min before test, 5-min period
From the text: The X-maze is constructed from Perspex® and comprises four arms (2 open, 2 closed), each 50 cm long by 9.5 wide and 40 high (closed, arms only) connected by a centre square (9.5×9.5). The open arm has a small lip (3 mm) to assist in the retention of the rat on the arm. The apparatus was housed in a room under subdued lighting conditions.
This model is based on the observation of spontaneous activity of rodents placed in an aversive environment produced by height and often spaces. […] Anxiolytic drugs increase the exploratory activity and the number of entries into the open arms. Rats were allowed at least 1 hour to acclimatise to the environment before testing commenced. Drug treatments were given IP in a pseudo-random, blind design, 40 minutes before behavioural testing, as appropriate. Rats were placed onto the centre square of the X-maze facing a specified open arm, and its behaviour was recorded by remote video over a 5 minute experimental period. The behavioural parameters were subsequently assessed by technicians reviewing the videotape and included: entries into each arm type, time spent on each arm type, rearing, stretch attend postures and head dips.

rats [2] = assay: Escape deficit test (learned helplessness), antidepressant activity; settings: rats treated IP for 15 days, unavoidable stress 16 h and escape test 24 h after last dosing; out of 30 trials; dose not given
Description: The “Escape deficit” test that derives from the classic paradigm of “learned helplessness” was used, as described by Meloni et al. in Pharmacol. Biochem. Behav. 46, 423-6 (1993) and Gambarana et al. in Behav. Pharmacol. 6, 66-73 (1995) and Neuropsychopharmacol. 21, 247-57 (1999). Exposure to an unavoidable stress induces […], which, after 24 hours, makes the rats unable to escape from a nociceptive stimulus. Rats exposed to unavoidable stress make 0-5 escapes out of 30 trials, while naïve rats realise 26-30 escapes. Classical anti-depressives prevent the occurrence of the escape deficit after chronic treatment (15 days).
Rats were treated intra-peritoneally (IP) for 15 days, and then submitted to the unavoidable stress (16 hours after the last dosing) prior to being subjected to the escape test (24 hours after the last dosing).

[3] = test system: Male rats of the Wistar strain; assay: Despair test (forced swim); settings: 5-min test, mean ± S.E.M.
[4] = test system: Male rats of the Wistar strain; assay: Reserpine-induced changes in open field behaviour; settings: reserpine 0.1 mg/kg SC daily for 14 days, 5-min test, mean ± S.E.M.
Description: Rats treated with the compound of Example 1 were compared to either rats treated with the classical antidepressant, clomipramine or controls in the despair test (forced swim). The same groups were also tested for the reserpine-induced changes in open field behaviour.
Male rats of the Wistar strain (purchased from Charles River, Italy) weighing 220-240 g were used throughout all experiments. For at least 1 week prior to the experiment, the rats were housed four to a cage at a constant temperature of 21° C., and under a 12-h light/dark cycle (lights on between 08:00 and 20:00), with food and water available ad libitum.
An acute IP injection of clomipramine hydrochloride (50 mg/kg) or of the compound of Example 1 (0.2 and 0.5 mg/kg) or physiological saline was made in animals subjected to the reserpine-induced changes in the open field test (the injection was made together with the last reserpine administration, e.g. 1 h prior to the open field test).
All animals were gently manipulated by experienced facilities' keepers avoiding any environmental or physical stress. Rats subjected to drugs or physiological saline administration received an injection of a 1-mL standard volume of solution with a 23-gauge stainless steel needle of 31 mm length (for […]) or 21 mm length (for SC injections). The animals were randomly assigned to any treatment group and were used only once in the behavioural experiments.
Reserpine-induced changes in open field behaviour was studied according to the method described in Naunyn-Schmiedeberg's Arch. Pharmacol. 293: 109-114 (Vetulani et al., 1976). Reserpine (Sigma, USA) was dissolved in physiological saline and injected daily for 14 days at the dose of 0.1 mg/kg subcutaneously (SC). A period of 1 hour after the last injection of reserpine, animals were subjected to the open field test. This consisted of the measure of ambulation and rearing of the rat in a circular area divided into 17 equal sections and lighted by a centrally suspended lamp. The areas explored by the rat at least with anterior paws was recorded in 5 min test. The episodes of rearing towards the centre or the walls were also recorded in 5 min test.
All data were analysed using univariate random design analysis of variance (one-way ANOVA) and the post hoc Dunnett's test for multiple comparisons. A P-value of 0.05 or less was considered as indicative of a significant difference.

[5] = acute 0.2 mg/kg IP 1 h prior to open field test
[6] = acute 0.5 mg/kg IP 1 h prior to open field test
[7] = acute 0.5 mg/kg IP 1 h prior to open field test, listed as Example 1

Which results are given for `O=C1CCCC=C1C1COCCN1O` (stereo not shown) [Ex. 1 (Abio 09/01), 2-(4-hydroxy-3-morpholinyl)-2-cyclohexenone]?
Atot = Total exploratory activity (BKW male albino mice): +10.4; CB/TB = crossings in the white compartment/time in white (BKW male albino mice): −0.05; CN/TN = crossings in the black compartment/time in black (BKW male albino mice): 0.08; Ctot = total number of crossings (BKW male albino mice): +7.5; FI = Initial potency (BKW male albino mice): +11.5; PT = Total passages through the partition (BKW male albino mice): +0.9; RB/TB = rearings in the white compartment/time in white (BKW male albino mice): +0.02; RN/TN = rearings in the black compartment/time in black (BKW male albino mice): +0.06; Rtot = Total number of rearings (BKW male albino mice): +5; TB = time in white section (BKW male albino mice; signed value): +53.4; % time spent in open arms (rats [1]): 39 ± 10%; No. of entries in open arms (rats [1]): 5.2 ± 1.4; No. of escapes (rats [2]): 23.3 ± 1.3; Duration of Immobility ([3]; 0.2 mg/kg IP): 167.00 ± 11.11; Duration of Immobility ([3]; 0.5 mg/kg IP, 0.5 mg/kg): 109.83 ± 9.12; Duration of Immobility ([3]; 0.5 mg/kg IP, listed as Example 1, 0.5 mg/kg): significant decrease of immobility time; No. of Floor Units (ambulation) [4, 5]: 128.1 ± 11.9; Rearing Episodes [4, 5]: 5.9 ± 0.3; No. of Floor Units (ambulation) [4, 6]: 92.2 ± 11.1; Rearing Episodes [4, 6]: 2.2 ± 0.5; No. of Floor Units (ambulation) [4, 7]: decreased ambulation; Rearing Episodes [4, 7]: decreased ambulation (number of floor units entered) and rearing
